Results as given in patent US8143282B2, “Heterocyclic compounds” (S*BIO Pte Ltd., priority 2005, dated 2012).

Tests used:
[1] = Measurement of microsomal stability; assay type: in vitro ADME; conditions: pooled human liver microsomes, pH 7.4; human liver microsome, 5 μM test compound, 1.0 mg/ml microsomal protein
Colo205 cells = assay: Cell-based proliferation assay for GI50 (CyQUANT), Colo205; conditions: Homo sapiens, COLO 205, 96 h treatment, read-out: Cellular or Growth Inhibition Activity in Colo205 cells, GI50
Method in brief: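 Cells were seeded at 1000 (PC3), 5000 (Colo205), 6000 (HCT116) or 4000 (HEP3B) per well and left 24 h at 37° C. Compound treatment lasted 96 h. Growth was read by CyQUANT, and GI50 (50% growth inhibition) came from dose-response curves.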

HDAC1 enzyme = target: T1, HDAC1 enzyme (Homo sapiens, UniProt Q13547); assay: In vitro HDAC assay for determination of IC50 values (BIOMOL fluorescent-based HDAC activity assay); assay type: biochemical
T1 construct: Amplification of human HDAC1 coding region from this cDNA library was cloned separately into the baculovirus expression pDEST20 vector; made in house; host or cells: SF9 insect cells, pDEST20-HDAC1 baculovirus
T1 sequence (Q13547 whole entry): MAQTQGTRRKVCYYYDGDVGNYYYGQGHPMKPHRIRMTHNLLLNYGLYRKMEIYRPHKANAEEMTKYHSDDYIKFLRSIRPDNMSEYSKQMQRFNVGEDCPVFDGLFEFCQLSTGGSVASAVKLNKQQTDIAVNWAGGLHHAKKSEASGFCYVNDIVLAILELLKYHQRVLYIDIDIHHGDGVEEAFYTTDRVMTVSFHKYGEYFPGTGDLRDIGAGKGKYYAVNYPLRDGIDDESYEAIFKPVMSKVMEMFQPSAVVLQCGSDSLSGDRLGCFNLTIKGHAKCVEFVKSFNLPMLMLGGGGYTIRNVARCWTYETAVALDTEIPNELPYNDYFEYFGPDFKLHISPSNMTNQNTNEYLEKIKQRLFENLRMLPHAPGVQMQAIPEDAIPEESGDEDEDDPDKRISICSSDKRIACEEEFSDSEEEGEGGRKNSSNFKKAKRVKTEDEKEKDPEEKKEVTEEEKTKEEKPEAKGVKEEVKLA
Method in brief: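 Recombinant GST-HDAC1, cloned from SW620 cDNA and expressed in Sf9 cells, tested in a fluorogenic Fluor de Lys deacetylase assay. Developer was added for 10 min and fluorescence read at 360/460 nm. IC50 came from concentration series.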

half-life at 5 μM [1]: > 30 min | GI50 (Colo205 cells): 150 nM | IC50 (HDAC1 enzyme): 36 nM
Structure (SMILES): CCCc1nc2cc(/C=C/C(=O)NO)ccc2n1CCNCCC(C)(C)C [Compound 130, 3-{1-[2-(3,3-Dimethyl-butylamino)-ethyl]-2-propyl-1H-benzoimidazol-5-yl}-N-hydroxy-acrylamide]
